{"source": "paper PMC3030271", "about": "(ACS medicinal chemistry letters, 2010)", "assay_type_in_all_cases": "cell-based", "key": {"[1]": {"target": "T1, hA3AR (Homo sapiens, UniProt P0DMS8)", "T1 sequence (P0DMS8 1-318)": "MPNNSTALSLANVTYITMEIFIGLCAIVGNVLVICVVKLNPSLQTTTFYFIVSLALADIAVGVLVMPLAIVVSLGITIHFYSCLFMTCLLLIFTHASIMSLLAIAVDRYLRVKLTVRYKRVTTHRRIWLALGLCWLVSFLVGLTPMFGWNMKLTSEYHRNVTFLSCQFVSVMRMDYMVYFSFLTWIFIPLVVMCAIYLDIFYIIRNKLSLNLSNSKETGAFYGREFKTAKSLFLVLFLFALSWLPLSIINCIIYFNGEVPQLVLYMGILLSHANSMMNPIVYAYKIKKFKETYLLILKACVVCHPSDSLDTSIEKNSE", "assay": "Cyclic AMP functional assay at the hA3AR expressed in CHO cells"}, "[2]": {"target": "hA2AAR (Homo sapiens, UniProt P29274)", "sequence (P29274 whole entry)": "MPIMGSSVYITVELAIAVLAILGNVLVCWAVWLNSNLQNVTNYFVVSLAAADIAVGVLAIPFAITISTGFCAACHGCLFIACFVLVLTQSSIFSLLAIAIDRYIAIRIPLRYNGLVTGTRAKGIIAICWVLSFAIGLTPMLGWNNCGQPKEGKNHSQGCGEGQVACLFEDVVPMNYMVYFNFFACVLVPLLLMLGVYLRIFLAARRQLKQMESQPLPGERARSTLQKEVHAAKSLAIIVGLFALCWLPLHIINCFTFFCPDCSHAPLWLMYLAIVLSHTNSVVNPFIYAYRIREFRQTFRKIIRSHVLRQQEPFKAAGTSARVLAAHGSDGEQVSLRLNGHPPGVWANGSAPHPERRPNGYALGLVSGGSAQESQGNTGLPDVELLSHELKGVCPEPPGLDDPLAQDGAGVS", "assay": "Cyclic AMP functional assay at the hA2AAR expressed in CHO cells", "settings": "compared to the standard CGS21680"}, "[3]": {"target": "T2, hA2BAR (Homo sapiens, UniProt P29275)", "T2 sequence (P29275 1-332)": "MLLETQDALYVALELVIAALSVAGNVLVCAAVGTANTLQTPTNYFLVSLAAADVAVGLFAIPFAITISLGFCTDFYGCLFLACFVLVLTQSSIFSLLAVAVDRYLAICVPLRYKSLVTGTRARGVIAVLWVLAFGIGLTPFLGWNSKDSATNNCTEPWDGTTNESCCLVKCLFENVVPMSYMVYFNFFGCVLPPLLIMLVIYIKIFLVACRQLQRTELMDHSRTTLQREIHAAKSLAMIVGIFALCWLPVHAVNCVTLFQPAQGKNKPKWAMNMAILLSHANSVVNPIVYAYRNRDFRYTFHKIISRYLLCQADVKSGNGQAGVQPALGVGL", "assay": "Cyclic AMP accumulation at the hA2BAR expressed in CHO cells"}}, "data": [{"smiles": "CCCC/C=C/c1nc(N)c2ncn([C@@H]3SC[C@@H](O)[C@H]3O)c2n1", "note": "[Compound 4b]", "values": [{"measurement": "Functional behaviour at the hA3AR (cyclic AMP assay)", "setting": "[1]", "value": "potent and full antagonists"}]}, {"smiles": "CCCCC#Cc1nc(N)c2ncn([C@@H]3SC[C@@H](O)[C@H]3O)c2n1", "note": "[Compound 4a]", "values": [{"measurement": "Functional behaviour at the hA2AAR (cyclic AMP assay)", "setting": "[2]", "value": "full agonist"}, {"measurement": "Functional behaviour at the hA2BAR (cyclic AMP accumulation)", "setting": "[3]", "value": "weak partial agonist"}, {"measurement": "Functional behaviour at the hA3AR (cyclic AMP assay)", "setting": "[1]", "value": "potent and full antagonists"}]}]}
